Laboratory results as given in patent publication US20050050594A1, “Tryptophan synthase as a site of herbicide action” (priority 1999, published 2005).
Like-named read-outs stand apart in the source and are kept apart here. Marks after values point to notes of the source that are not given here.

Legend:
TSβ (Spinacea enzyme) = test: TSβ assay with partially purified spinach enzyme; format: biochemical, Spinacea oleracea; design: key: the increase in the number of “+” corresponds to the increase of inhibition; +++++: the increase in the number of “+” corresponds to the increase of inhibition; +++++++: the increase in the number of “+” corresponds to the increase of inhibition; conditions: determined qualitatively
Procedure: The assay was conducted in microfuge tubes by the TSβ reaction (indole+L-serine→L-tryptophan+H2O). 100 μL of extract was mixed with 150 μL of 0.4 mM indole, 80 mM serine, 0.03 mM PLP, 0.1 M Tris-Cl buffer pH 7.8, containing 7.5 μL of saturated NaCl. The mixture was incubated at 21° C. for increasing time intervals, from 10 min to several hours. The reaction was terminated by adding 25 μL 1 N NaOH, then 1 mL toluene with mixing, and then centifuging in a microfuge 2 min at 10,000×G to partition remaining indole into the toluene phase and away from the enzyme. Remaining indole was subsequently partitioned into the indole reagent phase and reacted with dimethylaminobenzaldehyde: 500 μL of the toluene layer from the microfuge tubes was mixed with 1 ml of the indole reagent in another tube and allowed to separate for 20 min, then the lower layer was carefully pipetted into a cuvette and its absorbance measured at 540 nm. This part of the assay was conducted as known in the art.
A unique microtiter plate method was also developed to streamline the partitioning steps and data collection. First, the TSβ reaction was performed as above in microfuge tubes. […] The plate was covered by a mylar sheet (to protect the plate reader and avoid evaporation) and absorbance was monitored on the plate reader at 535 nm. […]
TS was partially purified from spinach for use in the TSβ assay. The greatest degree of purification was achieved by homogenizing the tissue, preparing the 30-50% ammonium sulfate fraction and freezing it, thawing it, and applying the dissolved precipitate to an FPLC column (Waters SW300, Waters Corporation, Franklin, Mass.) to separate the TS activity (measured as TSβ) from the bulk of the protein. […] Because of the low yield of the assay of partially purified plant TS, endogenous enzyme was measured in crude extracts or in enzyme preparations involving one or two purification steps. […]

[1] = target: T1, Salmonella typhimurium tryptophan synthase holoenzyme (α2β2), TSα reaction (Salmonella typhimurium, UniProt P00929); test: Inhibition of tryptophan synthase by the TSα reaction, microtiter kinetic coupled enzyme assay; format: biochemical
T1 construct: made in house; host or cells: E. coli strain CB149pSTB7
Source text: Inhibitors of TS were identified by their ability to inhibit the production of glyceraldehyde-3-P by the TSα reaction of the Salmonella typhimurium holoenzyme (α2β2) in the presence of a limiting amount of indole-3-glycerolphosphate and an excess of serine
The assay was developed as a new microtiter plate kinetic enzyme assay based on the combined methods of Creighton (EurJBch 13:1-10, 1970) and Creighton and Yanofsky (JBC 241:980, 1966) with modifications. The rate of glyceraldehyde production was measured as the linear […] (spectrophotometric absorbance at 340 nm) in the presence of glyceraldehyde-3-phosphate dehydrogenase in a coupled enzyme assay.
The assay solution contained a test inhibitor compound, 50 mM Tris-Cl (pH 7.8), 6 mM sodium arsenate, 5 μg/ml pyridoxal phosphate, 0.5 mM DTT, 0.18M NaCl, 60 mM serine, 1.6 mM NAD+, 8 e.u./ml yeast glyceraldehyde-3-phosphate dehydrogenase (Sigma, Catalog #G2647; Kirschner et al., Eur J Bch, 1975, 60:513 and approximately 1.5 e.u. Salmonella TS. 100 μM IGP was added to start the reaction, which was run at 37° C. and using 300 μl per assay in a microtiter plate.
The substrate IGP was used at 1.5 to 2 times its Km concentration to enhance the likelihood of identifying weak inhibitors, binding at the substrate binding site. This approach to identifying enzyme inhibitors was novel, since an excess of all substrates, (at least 5-times the Km value of each), is conventionally used in the measurement of enzyme activity.
Potential inhibitors were evaluated by adding 100 μM inhibitor (equimolar to substrate IGP):or less, in a 1:1 dilution series down from 100 μM, until the inhibition measured was less than 15%. Reaction rates at Vmax were compared in the presence and absence of inhibitors.
In addition, some weaker inhibitors were identified following preincubation of the inhibitor with the TS assay mix for 24 hrs prior to the addition of IGP. The identifying weaker inhibitors is to aid in a quantitative structure activity relationship (QSAR) evaluation, or to identify new herbicidal inhibitor leads. The previously known inhibitor IPP was used as a standard in all tests, where the I50 for IPP was 1-2 uM.

[2] = test system: a variety of dicotyledonous and monocotyledonous plants; test: Postemergence greenhouse herbicidal test; format: in vivo; conditions: post emergence greenhouse test, 4 kg/ha
Procedure: The herbicidal activity of the compounds was tested as described in the U.S. Pat. No. 5,635,449. […] In the tests, seedling plants are grown in jiffy flats for about two weeks. The test compounds are dispersed in 50/50 acetone/water mixtures containing 0.5% TWEEN®20, a polyoxyethylene sorbitan monolaurate surfactant of Atlas Chemical Industries, in sufficient quantities to provide the equivalent of about 1.0 kg to 8.0 kg per hectare of test compound when applied to the plants through a spray nozzle operating at 40 psi for a predetermined time. After spraying, the plants are placed on greenhouse benches and are cared for in the usual manner, commensurate with conventional greenhouse practices. From four to five weeks after treatment, the seedling plants are examined and rate according to the rating system set forth below.

Arabidopsis TS enzyme = target: T2, Arabidopsis TS enzyme (Arabidopsis thaliana, UniProt Q42529); test: TSα assay with recombinant plant TSα and TSβ expressed in E. coli; format: biochemical; conditions: inhibitor 82 uM; pAC 758 (1.5 ug) + pAC 755 (3 ug)
T2 construct: GST (N, cleaved yes); made in house; host or cells: E. coli DH5α (pGEX-2T constructs)
T2 sequence (Q42529 with tags, fused parts or gaps): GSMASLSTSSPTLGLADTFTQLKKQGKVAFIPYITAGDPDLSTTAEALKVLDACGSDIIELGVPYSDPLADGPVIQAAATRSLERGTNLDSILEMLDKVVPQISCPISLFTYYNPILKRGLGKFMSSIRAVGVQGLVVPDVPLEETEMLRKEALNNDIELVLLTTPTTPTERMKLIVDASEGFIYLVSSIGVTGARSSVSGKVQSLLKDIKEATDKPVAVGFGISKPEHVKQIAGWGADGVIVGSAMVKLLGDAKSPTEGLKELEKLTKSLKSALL
T2 sequence (P14671 with tags, fused parts or gaps partner): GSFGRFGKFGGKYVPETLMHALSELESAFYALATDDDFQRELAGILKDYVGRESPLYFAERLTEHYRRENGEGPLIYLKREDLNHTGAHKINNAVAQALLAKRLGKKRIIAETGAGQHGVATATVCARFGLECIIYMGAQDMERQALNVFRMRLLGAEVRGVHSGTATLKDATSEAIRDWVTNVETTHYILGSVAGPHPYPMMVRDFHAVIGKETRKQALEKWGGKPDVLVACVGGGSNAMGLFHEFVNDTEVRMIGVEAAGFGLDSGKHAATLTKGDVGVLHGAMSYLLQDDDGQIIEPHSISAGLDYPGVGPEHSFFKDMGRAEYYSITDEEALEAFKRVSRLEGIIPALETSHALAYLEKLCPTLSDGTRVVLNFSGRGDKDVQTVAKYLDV
Procedure: The plant TS proteins were expressed as fusion proteins with glutathione transferase (GST) to facilitate purification. After purification, the GST protein was cleaved off with thrombin as described above before the plant TS assays were performed. After thrombin cleavage, both TSα and TSβ-subunit proteins retained a Gly-Ser residue on the N-terminal of the protein in addition to the TS sequence. […]
The TSα enzyme assay was conducted as described in Example 3 for Salmonella TSα.
Specifically, phenylthiophosphonic acid compounds were used. The TSα assay conditions were as described for Salmonella TSα in Example 3 except that recombinant plant proteins were used instead of the Salmonella enzyme.

TSα subunit = TSα subunit reaction; cited from earlier work

T1 sequence (P00929 whole entry): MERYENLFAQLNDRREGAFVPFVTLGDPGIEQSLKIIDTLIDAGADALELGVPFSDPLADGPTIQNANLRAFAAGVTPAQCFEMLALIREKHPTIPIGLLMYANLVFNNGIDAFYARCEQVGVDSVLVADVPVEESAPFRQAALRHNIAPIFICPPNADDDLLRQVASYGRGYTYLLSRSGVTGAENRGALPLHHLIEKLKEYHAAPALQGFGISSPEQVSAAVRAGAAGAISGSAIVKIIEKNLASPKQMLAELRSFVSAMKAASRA
T1 sequence (P0A2K1 2-397, further chain): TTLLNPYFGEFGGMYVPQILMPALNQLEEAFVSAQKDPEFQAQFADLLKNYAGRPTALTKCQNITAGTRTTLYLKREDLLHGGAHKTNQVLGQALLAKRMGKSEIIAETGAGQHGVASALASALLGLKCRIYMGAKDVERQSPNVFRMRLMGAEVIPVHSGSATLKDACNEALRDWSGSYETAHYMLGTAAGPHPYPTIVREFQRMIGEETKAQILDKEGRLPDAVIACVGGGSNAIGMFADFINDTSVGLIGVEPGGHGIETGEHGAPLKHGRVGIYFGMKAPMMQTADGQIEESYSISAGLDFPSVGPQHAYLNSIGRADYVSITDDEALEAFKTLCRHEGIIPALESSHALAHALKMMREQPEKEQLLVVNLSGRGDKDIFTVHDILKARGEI

| Compound | TSβ (Spinacea enzyme), relative activity (TSβ (Spinacea enzyme)) | IC50 ([1]; TSα activity (Salmonella enzyme) I50) [µM] | Herbicidal Activity [2] | TSα activity, % of control (Arabidopsis TS enzyme) | TSα activity, relative Vmax (Arabidopsis TS enzyme) [mOD/min] | IC50 ([1]; I50 TS, TSα reaction of the highly purified Salmonella typhimiurium holoenzyme) [µM] | IC50 ([1]; I50 for IPP used as a standard in all tests, TSα reaction, 100 μM IGP) [µM] | IC50 ([1]; TS inhibition I50, TSα reaction, Salmonella holoenzyme, 30 min at 37° C., 100 μM IGP) [µM] | Ki (TSα subunit) [µM] | IC50 ([1]; TSα reaction, Salmonella holoenzyme, 30 min at 37° C., 100 μM IGP, read-out: TS inhibition I50) [µM] | IC50 ([1]; read-out: TSα activity (Salmonella enzyme) I50) [µM] |
| --- | --- | --- | --- | --- | --- | --- | --- | --- | --- | --- | --- |
| Cc1ccc(SCCCCP(=O)(O)O)c(N)c1 [Phosphonic acid,-{4-[(2-amino-p-tolyl)thio]butyl}-] | +++++++* | 1 | – | – | – | – | – | – | – | – | – |
| O=P(O)(O)OCCCc1c[nH]c2ccccc12 [Compound 1, indole-3-propanol phosphate, reference compound] | – | – | inactive | 35.9 % of control | 2.223 | 5 | 1 to 2 | 2 | 15 | – | – |
| Phosphonic acid, {4-[(o-aminophenyl)thio]butyl}-, compound with cyclohexylamine (1:2) | +++++ | – | – | – | – | – | – | – | – | 0.4 | 0.55 |
